Test results published in patent publication US20160106102A1, “KNOWN AND NEW HETEROCYCLIC COMPOUNDS AS PEST CONTROL AGENTS” (BAYER CROPSCIENCE AKTIENGESELLSCHAFT, priority 2013, published 2016).
Where two headings read alike, the source gives them in different places.

Experiments:
[1] = tested on: Myzus persicae; assay: Myzus persicae - sachet test; type: in vivo; settings: 100% = all animals killed
Experimental: Myzus persicae—Sachet Test Solvent: 2% by vol. of N-methylpyrrolidone • 2% by vol. of diacetone alcohol To produce an appropriate active ingredient formulation, the active ingredient is mixed with the specified amounts of solvent and the concentrate is diluted to the desired concentration with water. The active ingredient formulation is added to a specific nutrient medium in the desired concentration by pipetting. This plate is sealed and combined with a further plate populated with the green peach aphid (Myzus persicae). After the desired time, the kill in % is determined. 100% means that all the animals have been killed; 0% means that no animals have been killed.

[2] = log P determination by LC-MS in the acidic range; type: physicochemical; settings: for log P (acid): LC-MS in the acidic range
Excerpt: The LC-MS determination in the acidic range is effected at pH 2.7 using 0.1% aqueous formic acid and acetonitrile (contains 0.1% formic acid) as eluents, linear gradient from 10% acetonitrile to 95% acetonitrile. Alternatively, the determination is effected in the acidic range at pH 2.3 using 0.1% aqueous phosphoric acid and acetonitrile as eluents; linear gradient from 10% acetonitrile to 95% acetonitrile.

[3] = application rate of 6 ppm in nutrient medium
[4] = application rate of 30 ppm in nutrient medium
[5] = Myzus persicae, application rate of 30 ppm in nutrient medium, read-out: efficacy (kill in %)
[6] = pH 2.7, LC-MS in the acidic range, read-out: log P (acid)
[7] = pH 2.7, values given in the synthesis examples and NMR lists, read-out: HPLC-MS: log P

Compound	log P (acid) [2]	chromatographic logP [2, 6]	chromatographic logP [2, 7]	efficacy (kill in %) [1, 3]	efficacy (kill in %) [1, 4]	pest or weed control at 30 ppm [1, 5]	pest or weed control at 6 ppm ([1]; Myzus persicae, application rate of 6 ppm in nutrient medium, read-out: efficacy (kill in %))
Cc1cc(NC(=O)c2cccnc2)nn1Cc1ccc(Cl)nc1 [Compound I-1-21]	1.42			100%	100%		
CCOC(=O)Cn1nc(NC(=O)c2cccnc2)cc1C [Compound I-1-24]	0.89			100%	100%		
O=C(Nc1cc(C2CC2)n(Cc2ccc(Cl)nc2)n1)c1cccnc1 [Compound I-1-29]	1.77			100%	100%		
CCc1cc(NC(=O)c2cccnc2)nn1Cc1ccccc1 [Compound I-1-35, N-(1-Benzyl-5-ethyl-1H-pyrazol-3-yl)nicotinamide]		2.03	2.03			100%	
Cc1cc(NC(=O)c2cccnc2)nn1Cc1ncccc1Cl [Compound I-1-37]	1.42			100%	100%		
Cc1cc(NC(=O)c2cccnc2)nn1-c1ccc(C(F)(F)F)cn1 [Compound I-1-45]	2.64			100%	100%		
COc1cc(OC)nc(Cn2nc(NC(=O)c3cccnc3)cc2C)n1 [Compound I-1-53]	1.59			100%	100%		
O=C(Nc1cc(C2CC2)n(Cc2ccccc2)n1)c1cccnc1 [Compound I-1-56]	2.1				100%		
Cc1nc2c(c(NC(=O)c3cncc(F)c3)nn2C)c(C)c1C [Compound I-1-57]	1.6			100%	100%		
CCc1cc(NC(=O)c2cccnc2)nn1Cc1ccc(Cl)nc1 [Compound I-1-58]	1.67			80%	100%		
Cc1cc(NC(=O)c2cccnc2)nn1Cc1ccc(F)cc1 [Compound I-1-62]	1.88			100%	100%		
Cc1cc(NC(=O)c2cncnc2)nn1Cc1ccccc1 [Compound I-1-66]	1.76				100%		
O=C(Nc1ccn(Cc2c(F)cccc2F)n1)c1cccnc1 [Compound I-1-68]	1.55				100%		
O=C(Nc1ccn(Cc2cccc(F)c2)n1)c1cccnc1 [Compound I-1-70]	1.59				100%		
O=C(Nc1ccn(Cc2cccc(C(F)(F)F)c2)n1)c1cccnc1 [Compound I-1-71]	2.07				100%		
Cc1cccc(Cn2ccc(NC(=O)c3cccnc3)n2)c1 [Compound I-1-72]	1.83			100%	100%		
O=C(Nc1ccn(Cc2cccc(OC(F)(F)F)c2)n1)c1cccnc1 [Compound I-1-73]	2.20				100%		

Compound	log P (acid) [2]	chromatographic logP [2, 6]	chromatographic logP [2, 7]	efficacy (kill in %) [1, 3]	efficacy (kill in %) [1, 4]	pest or weed control at 30 ppm [1, 5]	pest or weed control at 6 ppm ([1]; Myzus persicae, application rate of 6 ppm in nutrient medium, read-out: efficacy (kill in %))
COc1cccc(Cn2ccc(NC(=O)c3cccnc3)n2)c1 [Compound I-1-74]	1.57			100%	100%		
CC(C)(C)c1ccc(Cn2ccc(NC(=O)c3cccnc3)n2)cc1 [Compound I-1-75]	2.68				100%		
O=C(Nc1ccn(Cc2ccc(F)cc2F)n1)c1cccnc1 [Compound I-1-76]	1.68			100%	100%		
COC(=O)c1cccc(Cn2ccc(NC(=O)c3cccnc3)n2)c1 [Compound I-1-77]	1.57			100%	100%		
COc1ccc(Cn2ccc(NC(=O)c3cccnc3)n2)cc1 [Compound I-1-78]	1.55				100%		
Cc1cc(NC(=O)c2ccnnc2)nn1Cc1ccccc1 [Compound I-1-79, N-(1-Benzyl-5-methyl-1H-pyrazol-3-yl)pyridazine-4-carboxamide]		1.67	1.67			100%	
Cc1ccc(C(=O)Nc2cc(C)n(Cc3ccccc3)n2)cn1 [Compound I-1-80]	1.71			80%	100%		
Cc1ccc(C)c(Cn2ccc(NC(=O)c3cccnc3)n2)c1 [Compound I-1-81]	2.11				100%		
Cc1cc(NC(=O)c2cncc(Br)c2)nn1Cc1ccc(F)cc1 [Compound I-1-83]	2.67				100%		
O=C(Nc1ccn(Cc2ccccc2)n1)c1cccnc1 [Compound I-1-84]	1.52			100%	100%		
CC(C)(C)c1ccc(Cn2ccc(NC(=O)c3ccc(Cl)nc3)n2)cc1 [Compound I-1-86]	3.54				100%		
O=C(Nc1ccn(Cc2cccc(C(F)(F)F)c2)n1)c1ccc(Cl)nc1 [Compound I-1-87]	2.82				100%		
O=C(Nc1ccn(Cc2ccccc2F)n1)c1cccnc1 [Compound I-1-88]	1.58			100%	100%		
N#Cc1ccccc1Cn1ccc(NC(=O)c2cccnc2)n1 [Compound I-1-89]	1.37			100%	100%		
O=C(Nc1ccn(Cc2cc(F)ccc2F)n1)c1cccnc1 [Compound I-1-90]	1.65			100%	100%		
O=C(Nc1ccn(Cc2ccccc2C(F)(F)F)n1)c1cccnc1 [Compound I-1-91]	2.09				100%		

Second part, led by results:

log P (acid) [2]	chromatographic logP [2, 6]	chromatographic logP [2, 7]	Compound	efficacy (kill in %) [1, 3]	efficacy (kill in %) [1, 4]	pest or weed control at 30 ppm [1, 5]	pest or weed control at 6 ppm ([1]; Myzus persicae, application rate of 6 ppm in nutrient medium, read-out: efficacy (kill in %))
1.85			CCOC(=O)c1ccc(Cn2ccc(NC(=O)c3cccnc3)n2)cc1 [Compound I-1-92]		100%		
2.59			Cc1cc(NC(=O)c2ccc(Cl)nc2)nn1Cc1ccccc1F [Compound I-1-93]		100%		
2.57			Cc1cc(NC(=O)c2ccc(Cl)nc2)nn1Cc1ccc(F)cc1 [Compound I-1-95]		100%		
2.58			Cc1cc(NC(=O)c2cncc(Br)c2)nn1Cc1ccccc1 [Compound I-1-99]		100%		
3.18			Cc1cc(NC(=O)c2cnc(Cl)c(Cl)c2)nn1Cc1ccccc1 [Compound I-1-100]		100%		
2.43			COc1ccc(C(=O)Nc2cc(C)n(Cc3ccccc3)n2)cn1 [Compound I-1-104]	80%	80%		
1.79			Cc1ccc(C(=O)Nc2cc(C)n(Cc3cccc(F)c3)n2)cn1 [Compound I-1-108]		100%		
0.89			Cn1nc(NC(=O)c2cccnc2)cc1OC(F)F [Compound I-1-111]	100%	100%		
1.86			O=C(Nc1ccn(Cc2ncc(C(F)(F)F)cc2Cl)n1)c1cccnc1 [Compound I-1-116]	100%	100%		
1.18			CC(=O)n1nc(NC(=O)c2cccnc2)cc1C [Compound I-1-120]	100%	100%		
	2.27	2.27	Cc1cc(NC(=O)c2cccnc2)nn1C(=O)c1ccccc1Cl [Compound I-1-122, N-[1-(2-Chlorobenzoyl)-5-methyl-1H-pyrazol-3-yl]nicotinamide]			100%	100%
0.98			Cc1c(Br)c(NC(=O)c2cccnc2)nn1Cc1ncccn1 [Compound I-1-125]		100%		
2.04			Cc1cc(C)nc(-n2nc(NC(=O)c3cncc(F)c3)cc2C)n1 [Compound I-1-132]		100%		
1.79			Cc1cc(NC(=O)c2cncc(F)c2)nn1CC(F)(F)F [Compound I-1-135]		100%		
	0.44	0.44	Cc1cn(Cc2ncccn2)nc1NC(=O)c1cccnc1 [Compound I-1-136, N-[4-Methyl-1-(pyrimidin-2-ylmethyl)-1H-pyrazol-3-yl]nicotinamide]			100%	
1.05			COC(=O)c1cc(NC(=O)c2cccnc2)nn1C [Compound I-1-138]		100%		
1.6			Cc1cc(C)nc(-n2nc(NC(=O)c3cccnc3)cc2C)n1 [Compound I-1-139]	100%	100%		
1.08			Cc1cc(NC(=O)c2cccnc2)nn1CN1CCS/C1=N/C#N [Compound I-1-142]	100%	100%		
0.82			Cc1cc(NC(=O)c2cccnc2)nn1Cn1c(=O)n(C)c(=O)n1C [Compound I-1-145]		100%		
